How the values were obtained:
[1] = skin permeation ex vivo, Franz-type diffusion cell; format: in vitro ADME, human; details: free acid recovered in dermis and receptor fluid
Protocol: Skin permeation studies were conducted with various formulations of latanoprost, ex vivo, on fresh human skin. Fresh human skin was obtained from live donors undergoing abdominoplasty and mounted on a standard (Franz-type) diffusion cell apparatus. All test articles contained 0.8% (weight/weight) of latanoprost. Each test article (8 mg) was uniformly applied to a skin surface of 0.8 cm^2. All formulations were tested on skin from at least two different donors. Treated skin was left open to the atmosphere to simulate clinical conditions. Receptor fluid flowed continuously over 24 hours and was collected in fractions. The amount of active drug metabolite (latanoprost free acid) in these fractions was determined by Liquid Chromatography/Tandem Mass Spectrometry. The following amounts of drug were recovered from receptor fluid over 24 hours:
Skin permeation studies were conducted with various formulations of latanoprost 0.5%, ex vivo, on fresh human skin, as described in the foregoing example. All formulations comprised ethanol (70%) and oleic acid (1.5%, 3% or 4.5%) with the remainder essentially as propylene glycol (28.5%, 27% or 25.5%, respectively). All studies were run in duplicate.

abdominal fat = assay: randomized placebo-controlled trial for reduction of abdominal fat; format: in vivo, human; details: compared to vehicle alone
Excerpt: The following experiment describes a randomized, placebo-controlled, double-blind trial in human subjects to test whether the safety and efficacy of a PFPRA pharmaceutical composition for reduction of abdominal fat. The composition can be, for example, as described in Example 1, wherein the PFPRA is latanoprost. Alternatively, the PFPRA can be tafluprost. Other alternatives within the scope of the invention can also be used. Eligible subjects (for example, n=60) with excess anterior abdominal fat are entered into a randomized double-blind study. […] Subjects are instructed to apply, once a day, a metered dose, for example, of 2 ml over a 200 cm^2 application area on the anterior abdomen. The application area is standardized, for example, by use of a template that is centered on the umbilicus. Serial clinical assessments, subjective patient assessments, photographs, and magnetic resonance imaging (MRI) scans are performed prior to the first dose and then, for example, at 6 and 12 weeks. Treatment continues, for example, for a total of 12 weeks.

SMILES | conversion of prodrug in skin samples [1] | satisfaction with cosmetic appearance (abdominal fat)
CC(C)OC(=O)CCC/C=C\C[C@@H]1[C@@H](CC[C@@H](O)CCc2ccccc2)[C@H](O)C[C@@H]1O [latanoprost] | converted (hydrolyzed) to the active metabolite, latanoprost free acid | more satisfied with their cosmetic appearance
CC(C)OC(=O)CCC/C=C\C[C@@H]1[C@@H](/C=C/C(F)(F)COc2ccccc2)[C@H](O)C[C@@H]1O [tafluprost] |  | more satisfied with their cosmetic appearance

— patent US10869874B2, “Methods and compositions for topical delivery of prostaglandins to subcutaneous fat” (Topokine Therapeutics, Inc., priority 2013, dated 2020)
